Measurements as given in the NIST ThermoML archive (doi:10.1016/j.jct.2012.03.025).
Numbers after ± are expanded uncertainties.

Assay: not given
Conditions: 308.15 K; 101 kPa; Liquid; Vibrating tube method

mass density	SMILES
994.058 ± 0.044 kg/m3	O [water]

Assay: mn = molality of the nth substance listed, in mol/kg
Conditions: 308.15 K; 101 kPa; Liquid; Vibrating tube method; m2 = 0

mass density	SMILES
994.058 ± 0.055 kg/m3	O [water] + CCCCn1cc[n+](C)c1.F[B-](F)(F)F
994.058 ± 0.044 kg/m3	O [water] + CCCCn1cc[n+](C)c1.[Cl-]
994.058 ± 0.064 kg/m3	O [water] + CCCCn1cc[n+](C)c1.[Br-]
994.058 ± 0.11 kg/m3	O [water] + CC(=O)[O-].CCCCn1cc[n+](C)c1
994.058 ± 0.092 kg/m3	O [water] + CCCCn1cc[n+](C)c1.[I-]
994.058 ± 0.079 kg/m3	O [water] + CCCCn1cc[n+](C)c1.O=S(=O)([O-])C(F)(F)F
